Holding throughout (format): cell-based
Test [1] concerns the target T1, TRPML3 (Homo sapiens, UniProt Q8TDD5).
T1 construct: expressed in transfected cells
T1 sequence (Q8TDD5 1-553): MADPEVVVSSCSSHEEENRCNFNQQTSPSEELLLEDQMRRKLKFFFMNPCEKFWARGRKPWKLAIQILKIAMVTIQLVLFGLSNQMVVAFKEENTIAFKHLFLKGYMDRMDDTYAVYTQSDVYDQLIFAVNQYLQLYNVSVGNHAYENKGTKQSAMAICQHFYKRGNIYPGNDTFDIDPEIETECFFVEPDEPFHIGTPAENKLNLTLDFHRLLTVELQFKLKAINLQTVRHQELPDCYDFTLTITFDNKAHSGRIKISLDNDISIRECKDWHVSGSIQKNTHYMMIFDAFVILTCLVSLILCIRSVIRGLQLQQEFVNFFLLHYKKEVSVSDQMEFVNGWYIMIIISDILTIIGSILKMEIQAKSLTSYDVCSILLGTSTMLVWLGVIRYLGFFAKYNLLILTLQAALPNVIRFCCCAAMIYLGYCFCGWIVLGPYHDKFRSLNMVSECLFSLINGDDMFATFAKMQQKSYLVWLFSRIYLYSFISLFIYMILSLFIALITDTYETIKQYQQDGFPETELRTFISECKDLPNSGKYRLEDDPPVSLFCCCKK
As to the kind of experiment: Fluorescent TRPML3 assay (performed as for TRPML1, substituting the TRPML3 subtype). The method in brief:
(§1)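 HEK-293 Trex, dox-induced (0.5 ug/mL), mutated for surface expression. Fluo4-AM 1 micromolar load ~60 min, dark; buffer modified Ringer's, 10 mM Ca. Cpds 20 micromolar–6 nanomolar final, half-log, n=3. Read ex 480/em 540; % activity vs controls; EC50 nonlinear fit.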

In test [2] the target is TRPML1 (Homo sapiens, UniProt Q9GZU1). As to the kind of experiment: Fluorescent TRPML1 assay (Fluo4-AM calcium fluorescence in doxycycline-induced HEK-293 Trex cells). Put shortly: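 HEK-293 Trex cells stably expressing surface-directed mutant human TRPML1, induced with 0.5 µg/mL doxycycline overnight, were loaded with 1 µM Fluo4-AM and added to compound (6 nM–20 µM final, half-log steps, triplicate) in Ringer's with 10 mM calcium. Fluorescence ex 480/em 540; EC50 by non-linear regression versus plate controls.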
Sequence of TRPML1 (Q9GZU1 whole entry L15A/L16A/L577A/L578A, form open): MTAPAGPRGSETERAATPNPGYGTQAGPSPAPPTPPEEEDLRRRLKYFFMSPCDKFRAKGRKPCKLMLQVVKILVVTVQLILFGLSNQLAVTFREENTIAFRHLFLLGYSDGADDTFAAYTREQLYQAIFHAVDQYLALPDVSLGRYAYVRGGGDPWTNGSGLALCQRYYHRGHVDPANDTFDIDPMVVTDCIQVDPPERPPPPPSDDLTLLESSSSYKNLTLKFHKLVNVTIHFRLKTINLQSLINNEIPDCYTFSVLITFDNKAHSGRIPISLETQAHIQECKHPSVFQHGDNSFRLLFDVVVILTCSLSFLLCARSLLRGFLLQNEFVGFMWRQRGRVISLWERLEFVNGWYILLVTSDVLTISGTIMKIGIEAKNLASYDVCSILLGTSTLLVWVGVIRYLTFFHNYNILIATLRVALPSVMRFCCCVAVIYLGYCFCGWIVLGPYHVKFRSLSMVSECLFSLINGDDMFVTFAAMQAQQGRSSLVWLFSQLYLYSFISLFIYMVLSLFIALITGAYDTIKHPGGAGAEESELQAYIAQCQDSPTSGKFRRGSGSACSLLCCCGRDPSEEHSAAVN

Test [3] concerns the target T2, TRPML2 (Homo sapiens, UniProt Q8IZK6).
T2 construct: expressed in transfected cells
T2 sequence (Q8IZK6 1-566): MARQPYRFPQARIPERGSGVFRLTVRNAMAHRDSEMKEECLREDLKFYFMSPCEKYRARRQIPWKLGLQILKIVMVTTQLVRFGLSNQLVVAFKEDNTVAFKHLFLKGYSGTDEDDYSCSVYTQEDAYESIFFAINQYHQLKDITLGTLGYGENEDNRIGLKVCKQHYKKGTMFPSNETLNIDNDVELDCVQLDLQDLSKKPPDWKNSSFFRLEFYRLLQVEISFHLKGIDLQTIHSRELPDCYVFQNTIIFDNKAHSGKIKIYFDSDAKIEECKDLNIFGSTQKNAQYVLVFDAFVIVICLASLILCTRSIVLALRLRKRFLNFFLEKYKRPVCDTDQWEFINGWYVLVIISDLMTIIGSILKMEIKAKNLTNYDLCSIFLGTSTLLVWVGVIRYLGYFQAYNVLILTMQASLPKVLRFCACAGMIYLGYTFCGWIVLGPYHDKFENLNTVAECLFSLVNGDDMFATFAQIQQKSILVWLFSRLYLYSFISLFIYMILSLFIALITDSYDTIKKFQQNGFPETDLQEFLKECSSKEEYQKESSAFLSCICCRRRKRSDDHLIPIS
As to the kind of experiment: Fluorescent TRPML2 assay (performed as for TRPML1, substituting the TRPML2 subtype). The method in brief: as §1

Like-named read-outs stand apart in the source and are kept apart here.

`C[C@H]1CN(C(=O)OC(C)(C)C)CCN1c1nccc2c1c(-c1ccccc1F)cn2-c1cc(C#N)ccn1` [Compound 449, tert-butyl (S)-4-(1-(4-cyanopyridin-2-yl)-3-(2-fluorophenyl)-1H-pyrrolo[3,2-c]pyridin-4-yl)-3-methylpiperazine-1-carboxylate]: the results for the EC50 in test [1] (fluorescent calcium assay), in test [2] (fluorescent calcium assay) and in test [3] (fluorescent calcium assay) were less than 100 nM, less than 100 nM and 100 to 500 nM, respectively.
Consider `Cc1cn(-c2cc(C#N)ccn2)c2ncnc(N3CCN(C(=O)OC(C)(C)C)[C@H](C)C3)c12` [Compound 680, tert-butyl (R)-4-(7-(4-cyanopyridin-2-yl)-5-methyl-7H-pyrrolo[2,3-d]pyrimidin-4-yl)-2-methylpiperazine-1-carboxylate], for which the concentration giving a half-maximal response (EC50) in test [1], in test [2] and in test [3] was less than 100 nM each time.
Take `C[C@H]1CN(C(=O)OC(C)(C)C)CCN1c1ncnc2c1c(C1CCOCC1)cn2-c1cc(F)cc(F)c1` [Compound 468, tert-butyl (S)-4-(7-(3,5-difluorophenyl)-5-(tetrahydro-2H-pyran-4-yl)-7H-pyrrolo[2,3-d]pyrimidin-4-yl)-3-methylpiperazine-1-carboxylate]: the concentration giving a half-maximal response (EC50) in test [1] (fluorescent calcium assay) is 100 to 500 nM; in test [2] (fluorescent calcium assay) it was 100 to 500 nM; in test [3] (fluorescent calcium assay) it was greater than 2000 nM.
On to `C[C@H]1CN(C(=O)OC(C)(C)C)CCN1c1ncnc2c1c(-c1ccccc1F)cn2-c1nc(C#N)cs1` [Compound 433, tert-butyl (S)-4-(7-(4-cyanothiazol-2-yl)-5-(2-fluorophenyl)-7H-pyrrolo[2,3-d]pyrimidin-4-yl)-3-methylpiperazine-1-carboxylate], for which the EC50 in test [1] (fluorescent calcium assay) was in the range of 100 to 500 nM; in test [2] (fluorescent calcium assay) it was 100 to 500 nM; in test [3] (fluorescent calcium assay) it was 500 to 2000 nM.
Regarding `C[C@H]1CN(C(=O)OC(C)(C)C)CCN1c1ncnc2c1c(-c1cncnc1)cn2-c1cccc(Cl)c1` [Compound 327, tert-butyl (S)-4-(7-(3-chlorophenyl)-5-(pyrimidin-5-yl)-7H-pyrrolo[2,3-d]pyrimidin-4-yl)-3-methylpiperazine-1-carboxylate], the results for the EC50 in test [1] (fluorescent calcium assay), in test [2] (fluorescent calcium assay) and in test [3] (fluorescent calcium assay) were less than 100 nM, 100 to 500 nM and 500 to 2000 nM, respectively.
Consider `C[C@H]1CN(C(=O)OC(C)(C)C)CCN1c1ncnc2c1c(N1CCCC1)cn2[C@@H]1C[C@@H]2CC[C@H]1C2` [Compound 406, tert-butyl-(S)-4-(7-((1S,2R,4R)-bicyclo[2.2.1]heptan-2-yl)-5-(pyrrolidin-1-yl)-7H-pyrrolo[2,3-d]pyrimidin-4-yl)-3-methylpiperazine-1-carboxylate], for which the EC50 fell in the range of 500 to 2000 nM in test [1] (fluorescent calcium assay), 100 to 500 nM in test [2] (fluorescent calcium assay) and 500 to 2000 nM in test [3] (fluorescent calcium assay).
Consider `C[C@H]1CN(C(=O)OC(C)(C)C)CCN1c1ncnc2c1c(-c1nccnc1F)cn2-c1cccc(Cl)c1` [Compound 267, tert-butyl (S)-4-(7-(3-chlorophenyl)-5-(3-fluoropyrazin-2-yl)-7H-pyrrolo[2,3-d]pyrimidin-4-yl)-3-methylpiperazine-1-carboxylate], for which the values for the EC50 in test [1] (fluorescent calcium assay), in test [2] (fluorescent calcium assay) and in test [3] (fluorescent calcium assay) were less than 100 nM, 100 to 500 nM and 100 to 500 nM, respectively.
On to `C[C@@H]1CN(c2ncnc3c2c(C2CC2)cn3-c2ccc(Cl)c(F)c2)CCN1C(=O)OC(C)(C)C` [Compound 110, tert-butyl (R)-4-(7-(4-chloro-3-fluorophenyl)-5-cyclopropyl-7H-pyrrolo[2,3-d]pyrimidin-4-yl)-2-methylpiperazine-1-carboxylate], for which the EC50 in test [1] (fluorescent calcium assay), in test [2] (fluorescent calcium assay) and in test [3] (fluorescent calcium assay) was less than 100 nM throughout.
With `C[C@H]1CN(C(=O)OC(C)(C)C)CCN1c1ncnc2c1c(C1CC1)cn2-c1cncc(C#N)c1` [Compound 259], the EC50 in test [1] (fluorescent calcium assay) is 100 to 500 nM; in test [2] (fluorescent calcium assay), 100 to 500 nM; in test [3] (fluorescent calcium assay), 500 to 2000 nM.
For the compound `CC(C)(C)OC(=O)N1CCN(c2ncnc3c2c(C(F)(F)F)cn3-c2cc(C#N)ccn2)C2(CC2)C1` [Compound 530, tert-butyl 4-(7-(4-cyanopyridin-2-yl)-5-(trifluoromethyl)-7H-pyrrolo[2,3-d]pyrimidin-4-yl)-4,7-diazaspiro[2.5]octane-7-carboxylate], the EC50 in test [1], in test [2] and in test [3] was less than 100 nM in each case.
Consider `C[C@H]1CN(C(=O)OC(C)(C)C)CCN1c1ncnc2c1c(C1CC1)cn2-c1cc(F)ccn1` [Compound 453, tert-butyl (S)-4-(5-cyclopropyl-7-(4-fluoropyridin-2-yl)-7H-pyrrolo[2,3-d]pyrimidin-4-yl)-3-methylpiperazine-1-carboxylate], for which the concentration giving a half-maximal response (EC50) in test [1] (fluorescent calcium assay) is less than 100 nM; in test [2] (fluorescent calcium assay) it was less than 100 nM; in test [3] (fluorescent calcium assay), 100 to 500 nM.
Regarding `C[C@H]1CN(C(=O)OC(C)(C)C(F)(F)F)CCN1c1ncnc2c1c(C1CC1)cn2-c1cc(C#N)ccn1` [Compound 318, 1,1,1-trifluoro-2-methylpropan-2-yl (S)-4-(7-(4-cyanopyridin-2-yl)-5-cyclopropyl-7H-pyrrolo[2,3-d]pyrimidin-4-yl)-3-methylpiperazine-1-carboxylate], the EC50 in test [1] (fluorescent calcium assay) is 100 to 500 nM; in test [2] (fluorescent calcium assay), less than 100 nM; in test [3] (fluorescent calcium assay) it was 500 to 2000 nM.
The like results for `C[C@H]1CN(C(=O)OC(C)(C)C)CCN1c1ncnc2c1c(N1CCCC1)cn2-c1cc(C#N)ccn1` [Compound 370, tert-butyl (S)-4-(7-(4-cyanopyridin-2-yl)-5-(pyrrolidin-1-yl)-7H-pyrrolo[2,3-d]pyrimidin-4-yl)-3-methylpiperazine-1-carboxylate] were, in that order, less than 100 nM, less than 100 nM and 100 to 500 nM.
Taken in the same sequence, the figures for `C[C@H]1CN(C(=O)OC(C)(C)C)CCN1c1ncnc2c1c(CN1CCCC1)cn2-c1cccc(Cl)c1` [Compound 337, tert-butyl-(S)-4-(7-(3-chlorophenyl)-5-(pyrrolidin-1-ylmethyl)-7H-pyrrolo[2,3-d]pyrimidin-4-yl)-3-methylpiperazine-1-carboxylate] were 100 to 500 nM, 500 to 2000 nM and greater than 2000 nM.
With `C[C@H]1CN(C(=O)OC(C)(C)C)CCN1c1ncnc2c1c(-c1ccncc1F)cn2-c1cc(C#N)ccn1` [Compound 355, tert-butyl (S)-4-(7-(4-cyanopyridin-2-yl)-5-(3-fluoropyridin-4-yl)-7H-pyrrolo[2,3-d]pyrimidin-4-yl)-3-methylpiperazine-1-carboxylate], the EC50 in test [1] (fluorescent calcium assay), in test [2] (fluorescent calcium assay) and in test [3] (fluorescent calcium assay) was less than 100 nM each time.
As for `C[C@@H]1CN(C(=O)OC(C)(C)C)CCN1c1ncnc2c1c(N1CCOCC1)cn2-c1cccc(Cl)c1` [Compound 229, tert-Butyl (R)-4-(7-(3-chlorophenyl)-5-morpholino-7H-pyrrolo[2,3-d]pyrimidin-4-yl)-3-methylpiperazine-1-carboxylate], the values for the EC50 in test [1] (fluorescent calcium assay), in test [2] (fluorescent calcium assay) and in test [3] (fluorescent calcium assay) were 100 to 500 nM, 500 to 2000 nM and 500 to 2000 nM, respectively.
Take `CCc1cn(-c2cc(C(F)(F)F)ccn2)c2ncnc(N3C[C@@H](C)N(C(=O)OC(C)(C)C)C[C@@H]3C)c12` [Compound 696, tert-butyl (2R,5S)-4-(5-ethyl-7-(4-(trifluoromethyl)pyridin-2-yl)-7H-pyrrolo[2,3-d]pyrimidin-4-yl)-2,5-dimethylpiperazine-1-carboxylate]: the concentration for a half-maximal effect (EC50) in test [1], in test [2] and in test [3] was less than 100 nM each time.
On to `C[C@H]1CN(C(=O)OC(C)(C)C(F)(F)F)CCN1c1ncnc2c1c(C1CC1)cn2-c1cccc(Cl)c1` [Compound 140, 1,1,1-trifluoro-2-methylpropan-2-yl (S)-4-(7-(3-chlorophenyl)-5-cyclopropyl-7H-pyrrolo[2,3-d]pyrimidin-4-yl)-3-methylpiperazine-1-carboxylate], for which the EC50 in test [1] (fluorescent calcium assay), in test [2] (fluorescent calcium assay) and in test [3] (fluorescent calcium assay) was less than 100 nM throughout.

The term EC50 denotes the concentration that produces a half-maximal response.

Source of the values: patent US20250136606A1, “MODULATORS OF TRPML, THEIR COMPOSITIONS AND METHODS OF USE” (Caraway Therapeutics, Inc., priority 2021, published 2025).
